Consider eleven molecules from PubChem BioAssay (NCI).

Among the test systems are OVCAR-4 ovarian; LOX IMVI melanoma; OVCAR-8 ovarian; UACC-62 melanoma; T-47D breast; NCI-H226 lung; UO-31 renal; K-562 leukemia.
Holding throughout (experiment): growth of human tumour cells (NCI), 48 h

SMILES strings stand for the structures.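 Values below derive from 48-hour exposures of cells grown in 96-well plates, with endpoints linearly interpolated between the two concentrations bracketing the appropriate inhibition level. GI50 marks 50% less growth. Definition used: TGI = concentration required for complete inhibition of growth.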

In the case of `CN(C)c1ccc(/C=C2\N=C(c3ccccc3)N(c3cc(C(F)(F)F)ccc3Cl)C2=O)cc1`, the GI50 in the assay with OVCAR-4 ovarian is more than 69 µM; in the assay with LOX IMVI melanoma, more than 100 µM; with OVCAR-8 ovarian, more than 100 µM; in the assay with UACC-62 melanoma it was more than 100 µM; in the assay on T-47D breast it was more than 100 µM; in the assay with NCI-H226 lung, more than 90.4 µM. The GI50 in the assay with UO-31 renal and in the assay on K-562 leukemia was more than 100 µM each time. Further, the TGI with OVCAR-4 ovarian, in the assay with LOX IMVI melanoma, in the assay with OVCAR-8 ovarian, in the assay with UACC-62 melanoma, in the assay with T-47D breast and with NCI-H226 lung was more than 100 µM in each case. For the same molecule, the TGI in the assay with UO-31 renal and in the assay on K-562 leukemia was more than 100 µM throughout.
Regarding `C#CCNC(=S)N/N=C(\C)c1ccccn1`, the GI50 was 0.0519 µM in the assay on OVCAR-4 ovarian; 0.588 µM with LOX IMVI melanoma; 0.284 µM in the assay on OVCAR-8 ovarian; 1.12 µM in the assay on UACC-62 melanoma; 0.0933 µM with T-47D breast; 0.406 µM in the assay on NCI-H226 lung. In addition, the GI50 was 0.333 µM in the assay on UO-31 renal and 0.0751 µM in the assay with K-562 leukemia. The TGI in the assay on OVCAR-4 ovarian is 1.35 µM; in the assay with LOX IMVI melanoma, more than 32 µM; with OVCAR-8 ovarian, more than 100 µM; in the assay on UACC-62 melanoma it was 4.38 µM; with T-47D breast, more than 100 µM; with NCI-H226 lung, 3.33 µM. Also, the TGI with UO-31 renal and in the assay with K-562 leukemia was more than 100 µM each time.
For `O=[N+]([O-])c1nccn1CC(O)CN1CCCCC1` (centres undefined), the TGI with OVCAR-4 ovarian, in the assay on LOX IMVI melanoma, with OVCAR-8 ovarian, in the assay on UACC-62 melanoma, with T-47D breast and with NCI-H226 lung was more than 100 µM throughout. The TGI in the assay with UO-31 renal and in the assay on K-562 leukemia was more than 100 µM in each case.
As to `COC(=O)C(CCC(=O)CCl)N1C(=O)c2ccccc2C1=O` (centres undefined), the TGI in the assay with OVCAR-4 ovarian turned out to be 27.4 µM; in the assay with LOX IMVI melanoma it was 4.02 µM; in the assay on OVCAR-8 ovarian it was 19 µM; with UACC-62 melanoma, 26 µM; in the assay on T-47D breast, 26.8 µM; in the assay on NCI-H226 lung, 29.9 µM. For the same molecule, the TGI was 24.2 µM in the assay with UO-31 renal and 12.7 µM in the assay on K-562 leukemia.
In the case of `O=C(Nc1ccc(-n2ccc3c(NC(=O)c4ccccc4)ncnc32)cc1)c1cccc(C(F)(F)F)c1`, the GI50 with OVCAR-4 ovarian is 4.31 µM; in the assay with LOX IMVI melanoma it was 0.218 µM; in the assay on OVCAR-8 ovarian, 1.16 µM; in the assay with UACC-62 melanoma it was 0.809 µM; in the assay with T-47D breast, 5.82 µM; with NCI-H226 lung it was 6.14 µM. Besides, the GI50 with UO-31 renal was 3.42 µM; in the assay with K-562 leukemia it was 0.13 µM. The TGI in the assay with OVCAR-4 ovarian stood at 31.2 µM; in the assay with LOX IMVI melanoma, 5.83 µM; in the assay with OVCAR-8 ovarian it was 29.2 µM; in the assay with UACC-62 melanoma it was 11.1 µM; with T-47D breast, 30.6 µM; with NCI-H226 lung, 26.1 µM. Further, the TGI with UO-31 renal is 21.7 µM; with K-562 leukemia, more than 53.8 µM.
Regarding `CC(C)c1nc(N(C)S(C)(=O)=O)nc(-c2ccc(F)cc2)c1/C=C/[C@@H](O)C[C@@H](O)CC(=O)O`, the GI50 was more than 100 µM in the assay with OVCAR-4 ovarian; 21.2 µM in the assay on LOX IMVI melanoma; more than 85.4 µM in the assay with OVCAR-8 ovarian; 42.1 µM with UACC-62 melanoma; more than 100 µM in the assay on T-47D breast; more than 100 µM with NCI-H226 lung. Also, the GI50 with UO-31 renal and with K-562 leukemia was more than 100 µM throughout. Moreover, the TGI in the assay on OVCAR-4 ovarian, with LOX IMVI melanoma, in the assay on OVCAR-8 ovarian, in the assay on UACC-62 melanoma, in the assay with T-47D breast and in the assay on NCI-H226 lung was more than 100 µM in each case. Further, the TGI in the assay on UO-31 renal and in the assay on K-562 leukemia was more than 100 µM each time.
For `O=c1c2cc(-c3ccccc3)sc2ncn1Cc1ccc(Cl)c(Cl)c1`, the GI50 in the assay on OVCAR-4 ovarian was 12.5 µM; in the assay on LOX IMVI melanoma it was 51.9 µM; in the assay on OVCAR-8 ovarian, 18.6 µM; in the assay on UACC-62 melanoma, 13 µM; in the assay with T-47D breast, 31.8 µM; in the assay with NCI-H226 lung, 13.1 µM. In addition, the GI50 in the assay on UO-31 renal is 31.8 µM; in the assay with K-562 leukemia, 20.7 µM. The TGI is 38 µM in the assay with OVCAR-4 ovarian; more than 100 µM with LOX IMVI melanoma; more than 100 µM with OVCAR-8 ovarian; 28 µM in the assay on UACC-62 melanoma; more than 100 µM in the assay with T-47D breast; 87.2 µM in the assay with NCI-H226 lung. Further, the TGI with UO-31 renal and in the assay with K-562 leukemia was more than 100 µM throughout.
As to `Oc1c(Cl)cc(Cl)c2ccc(Cn3cc(-c4cc(C(F)(F)F)cc(C(F)(F)F)c4)nn3)nc12`, the GI50 in the assay with OVCAR-4 ovarian was 1.27 µM; in the assay with LOX IMVI melanoma it was 0.317 µM; with OVCAR-8 ovarian it was 2.79 µM; with UACC-62 melanoma, 2.15 µM; in the assay with T-47D breast it was 1.67 µM; in the assay with NCI-H226 lung it was 4.93 µM. For the same molecule, the GI50 in the assay with UO-31 renal is 1.6 µM; in the assay with K-562 leukemia, 0.313 µM. The TGI in the assay with OVCAR-4 ovarian was found to be 2.75 µM; in the assay with LOX IMVI melanoma, 1.28 µM; in the assay on OVCAR-8 ovarian, 9.94 µM; in the assay with UACC-62 melanoma, 6.65 µM; with T-47D breast, 5.55 µM; in the assay on NCI-H226 lung, 21 µM. Besides, the TGI in the assay on UO-31 renal is 5.51 µM; in the assay with K-562 leukemia, more than 100 µM.
For the molecule `Cc1ccc2nc(-c3ccc(OCC(=O)N=Nc4c(O)[nH]c5ccccc45)cc3)[nH]c2c1`, the GI50 was 1.95 µM in the assay with OVCAR-4 ovarian; 1.83 µM with LOX IMVI melanoma; 2.46 µM in the assay with OVCAR-8 ovarian; 4.38 µM with UACC-62 melanoma; 2.02 µM in the assay with T-47D breast; 11.2 µM in the assay with NCI-H226 lung. Moreover, the GI50 with UO-31 renal is 82.4 µM; with K-562 leukemia, 2.43 µM. In addition, the TGI in the assay on OVCAR-4 ovarian was 4.09 µM; in the assay on LOX IMVI melanoma, 3.52 µM; in the assay with OVCAR-8 ovarian, 6.34 µM; with UACC-62 melanoma it was 16.8 µM; with T-47D breast it was 4.88 µM; with NCI-H226 lung, 56.1 µM. The TGI is more than 100 µM in the assay with UO-31 renal and 9.44 µM in the assay with K-562 leukemia.
Regarding `[O-][N+]1(CC[N+]2([O-])CCCCC2)CCCCC1`, the TGI in the assay on OVCAR-4 ovarian, in the assay on LOX IMVI melanoma, in the assay on OVCAR-8 ovarian, in the assay on UACC-62 melanoma, with T-47D breast and in the assay on NCI-H226 lung was more than 100 µM each time. The TGI with UO-31 renal and in the assay with K-562 leukemia was more than 100 µM throughout.
For `O=c1cc(-c2ccc(O)cc2)oc2cc(O[C@@H]3O[C@H](CO)[C@@H](O)[C@H](O)[C@H]3O)cc(O)c12`, the TGI in the assay with OVCAR-4 ovarian, with LOX IMVI melanoma, with OVCAR-8 ovarian, in the assay with UACC-62 melanoma, in the assay on T-47D breast and in the assay on NCI-H226 lung was more than 100 µM in each case. Further, the TGI with UO-31 renal and in the assay on K-562 leukemia was more than 100 µM throughout.
